Data taken from patent US7271162B2, “Cycloocta[b][1,4]diazepino[6,7,1-hi]indoles and derivatives” (Wyeth, priority 2000, dated 2007).
Where a name gives a salt, the structure may show the parent alone. Read-outs that look alike come from different tables or passages of the source.

What was measured:
[1] = biological target: T1, human 5-HT2C receptor (Homo sapiens, UniProt P28335); experiment: Stimulation of [3H] Inositol Monophosphate Production by 5HT2C Agonists in transfected CHO cells; details: read-out: 5HT2C Stimulation of IP3 % Emax (5HT, 100%)
T1 sequence (P28335 33-458): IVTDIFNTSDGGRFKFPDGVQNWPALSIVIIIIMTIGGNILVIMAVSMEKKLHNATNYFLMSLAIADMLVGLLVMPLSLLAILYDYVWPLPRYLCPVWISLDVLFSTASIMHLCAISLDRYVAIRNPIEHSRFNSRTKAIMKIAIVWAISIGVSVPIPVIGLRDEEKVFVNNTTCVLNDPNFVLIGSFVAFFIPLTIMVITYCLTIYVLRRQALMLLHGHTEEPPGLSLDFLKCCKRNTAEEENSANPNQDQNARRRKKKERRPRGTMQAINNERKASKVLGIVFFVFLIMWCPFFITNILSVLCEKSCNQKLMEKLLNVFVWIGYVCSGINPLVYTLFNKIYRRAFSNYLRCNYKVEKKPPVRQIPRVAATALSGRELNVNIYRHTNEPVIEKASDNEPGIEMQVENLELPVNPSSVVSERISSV
Protocol: One (1) ml of maintenance medium containing 1 μCi/ml myo-[^3H] inositol was added to each well. After 48 hours labeling, the cells were washed once with 0.5 ml DMEM containing 25 mM HEPES and 10 mM LiCl, then preincubated with the medium for 30 min (antagonists were included in this period if tested). At the end of the preincubation, the medium was removed, the cells were then incubated with test compounds (in presence of antagonists if needed) for 30 min. The reaction was terminated by removal of the incubation solution and addition of 0.5 ml ice-cold 5% PCA, followed by 15 to 30 min incubation on ice. 200 μl of 0.5 M Tes/1.5 M K2CO3 was added to each well to neutralize to pH 7, and plates were left on ice for another 15 to 30 min to precipitate all salts. The liquid and solid phases were separated by centrifugation.
A portion (350 μl) of the upper aqueous phase was applied to Dowex AG-1X8 (formate form, 100-200 mesh) columns. The columns were then washed stepwise with 10 ml of water and 10 ml of 25 mM ammonium formate to remove free myo-[^3H]inositol and deacylated phosphoinositol, respectively. Finally 10 ml of 0.2 M ammonium formate solution was applied to the columns to elute [^3H] inositol monophosphate ([^3H] IP1) directly into scintillation vials. Of this eluate, 1 ml was used to determine radioactivity by scintillation counting. […]

[2] = biological target: T2, human 5-hydroxytryptamine2C (h5HT2C) receptor (Homo sapiens, UniProt P28335); experiment: 5HT2C Receptor Binding Test Procedure ([125I] DOI displacement, membranes of transfected CHO cells)
T2 construct: expressed in transfected cells; host or cells: CHO (Chinese Hamster Ovary) cells; membrane preparation
T2 sequence (P28335 33-458): T1 sequence (P28335 33-458)

c1cc2c3c(c1)c1c(n3CCNC2)CCCCCC1 (as salt: hydrochloride) [Example 1, 1,2,3,4,8,9,10,11,12,13-Decahydrocycloocta[b][1,4]diazepino[6,7,1-hi]indole]
melting point: 316 to 318 °C

c1cc2c3c(c1)c1c(n3CCNC2)CCCCCC1 [Example 1, 1,2,3,4,8,9,10,11,12,13-Decahydrocycloocta[b][1,4]diazepino[6,7,1-hi]indole]
Emax [1]: 120%

c1cc2c3c(c1)C1CCCCCCC1N3CCNC2 (stereo not drawn) [Example 2, 1,2,3,4,7b,8,9,10,11,12,13,13a-Dodecahydrocycloocta[b][1.4]diazepino[6,7,1-hi]indole]
Ki [2]: 65 nM
melting point: 58 to 63 °C

CSc1ccc2c(c1)C(N1CCN(C)CC1)Cc1ccccc1S2 (stereo not drawn) [Methiothepin]
Ki ([2]; reference compounds, [125I] DOI binding, h5HT2C CHO membranes, read-out: Ki value and 95% confidence interval): 4.6 nM

COc1cc(CC(C)N)c(OC)cc1I (stereo not drawn) [[^125I] DOI]
Kd ([2]; read-out: dissociation constant, KD of [125I] DOI at the human serotonin 5HT2C receptor, saturation binding with increasing concentrations of [125I] DOI): 0.4 nM
